Results published in BindingDB's records for doi:10.1080/14756360500179333 (University of Karachi, 2005).

Biological target: Tyrosinase (Agaricus bisporus)
Experiment: Tyrosinase inhibition assays were performed in a 96-well microplate format using SpectraMax 340 (Molecular Devices, CA, USA) microplate reader according to method developed earlier.
Conditions: pH 6.8

## CC(=O)N1CCC(N2CCCCC2)CC1
  IC50: 29.9 µM

## C1CCN(C2CCNCC2)CC1 [Tyrosinase Inhibitor, 1]
  IC50: 111 µM

## Cc1ccc(CN2CCC(N3CCCCC3)CC2)cc1 [Tyrosinase Inhibitor, 4]
  IC50: 1.72 µM

## O=[N+]([O-])c1ccc(S(=O)(=O)N2CCC(N3CCCCC3)CC2)cc1 [Tyrosinase Inhibitor, 8]
  IC50: 8.76 µM
